# Where two headings read alike, the source gives them in different places.
# Target: T1, NS3 protease domain complexed to a modified form of the NS4A peptide (Pep4AK) (Hepatitis C virus genotype 1b, UniProt P26663)
# T1 construct: NS3 protease domain (residues 1027–1206 of the HCV polyprotein)
# Assay: HCV NS3 protease domain/NS4A cofactor peptide assay (Assay B)
# Type: biochemical
# [1] = Table 2, NS3 protease domain/Pep4AK, read-out: Assay B
# [2] = Table 1, NS3 protease domain/Pep4AK, 4AB peptide substrate, read-out: Assay B
# [3] = Table 4, NS3 protease domain/Pep4AK, read-out: Assay B
# [4] = NS3 protease domain/NS4A cofactor peptide assay, read-out: Assay B (IC50 class)
# T1 sequence (P26663 1027-1206, other chains not shown): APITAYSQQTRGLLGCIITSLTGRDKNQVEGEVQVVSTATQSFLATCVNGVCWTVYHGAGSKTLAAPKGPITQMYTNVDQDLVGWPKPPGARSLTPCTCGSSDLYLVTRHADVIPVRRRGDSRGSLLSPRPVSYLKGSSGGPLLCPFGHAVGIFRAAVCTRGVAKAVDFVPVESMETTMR
Structure (SMILES),IC50 [1],IC50 [2],also measured
COc1ccc(CCNC(=O)[C@H](CS)NC(=O)[C@H](CC(C)C)NC(=O)[C@H](CCC(=O)O)NC(=O)CCC2CCCC2)cc1 [Compound 236],< 100 µM,–,–
COc1ccc(CCNC(=O)[C@H](CS)NC(=O)[C@H](CC(C)C)NC(=O)[C@H](CCC(=O)O)NC(=O)c2ccccc2)cc1 [Compound 202],< 100 µM,–,–
CC(C)COC(=O)NC(CCC(=O)O)C(=O)NC(CC(C)C)C(=O)NC(CS)C(=O)NCCc1ccc([N+](=O)[O-])cc1 (stereo not drawn) [Compound 147],–,< 100 µM,–
CCOC(=O)/C=C/c1ccc(CCNC(=O)[C@H](CS)NC(=O)[C@H](CC(C)C)NC(=O)[C@H](CCC(=O)O)NC(=O)OCC(C)C)cc1 [Compound 157],–,< 10 µM,–
COc1ccc(CCNC(=O)[C@H](CS)NC(=O)[C@H](CC(C)C)NC(=O)[C@H](CCC(=O)O)NC(=O)Cc2cccs2)cc1 [Compound 223],< 100 µM,–,–
CC(C)C[C@H](NC(=O)[C@H](CCC(=O)O)NC(=O)CCCC(=O)O)C(=O)N[C@@H](CS)C(=O)NCCc1ccccc1Cl [Compound 244],< 100 µM,–,–
CC(C)COC(=O)N[C@@H](CCC(=O)O)C(=O)N(C)[C@@H](CC(C)C)C(=O)N[C@@H](CS)C(=O)NCCc1ccccc1Cl [Compound 416],–,–,IC50 [3]: < 100 µM
CC(C)C[C@H](NC(=O)[C@H](CCC(=O)O)NC(=O)CCC1CCCC1)C(=O)N[C@@H](CS)C(=O)NCCc1ccccc1Cl [Compound 235],< 100 µM,–,–
CC(C)C[C@H](NC(=O)[C@H](CCC(=O)O)NC(=O)CC1CCCCC1)C(=O)N[C@@H](CS)C(=O)NCCc1ccccc1Cl [Compound 234],< 100 µM,–,–
CC(C)COC(=O)NC(CCC(=O)O)C(=O)NC(CC(C)C)C(=O)NC(CS)C(=O)NCCc1cccc(F)c1 (stereo not drawn) [Compound 126],–,< 100 µM,–
CC(C)C[C@H](NC(=O)[C@@H](NC(=O)OCC1CCCC1)C(C)C)C(=O)N[C@@H](CS)C(=O)NCCc1ccc(C(=O)O)cc1Cl [Compound 181],–,< 10 µM,–
CC(C)COC(=O)NC(CCC(=O)O)C(=O)NC(CC(C)C)C(=O)NC(CS)C(=O)NCCc1cccc(Cl)c1 (stereo not drawn) [Compound 127],–,< 100 µM,–
COC(=O)c1ccc(CCNC(=O)C(CS)NC(=O)C(CC(C)C)NC(=O)C(CCC(=O)O)NC(=O)OCC(C)C)cc1 (stereo not drawn) [Compound 150],–,< 100 µM,–
CC(C)C[C@H](NC(=O)[C@H](CCC(=O)O)NC(=O)CC1NC(=O)NC1=O)C(=O)N[C@@H](CS)C(=O)NCCc1ccc(Cl)cc1Cl (stereo partly drawn) [Compound 238],< 100 µM,–,–
COC(=O)Cc1ccc(CCNC(=O)C(CS)NC(=O)C(CC(C)C)NC(=O)C(CCC(=O)O)NC(=O)OCC(C)C)cc1 (stereo not drawn) [Compound 153],–,< 100 µM,–
CC(C)COC(=O)N[C@@H](CCC(=O)O)C(=O)N[C@@H](CCC(=O)OCc1ccccc1)C(=O)N[C@@H](CS)C(=O)NCCc1ccccc1Cl [Compound 413],–,–,IC50 [3]: < 100 µM
CCC[C@H](NC(=O)[C@H](CCC(=O)O)NC(=O)OCC(C)C)C(=O)N[C@@H](CS)C(=O)NCCc1ccccc1Cl [Compound 405],–,–,IC50 [3]: < 100 µM
CC(C)COC(=O)NC(CCC(=O)O)C(=O)NC(CC(C)C)C(=O)NC(CS)C(=O)NCCc1ccc(C(C)(C)C)cc1 (stereo not drawn) [Compound 148],–,< 100 µM,–
CC(C)C[C@H](NC(=O)[C@H](CCC(=O)O)NC(=O)[C@@H](O)c1ccccc1)C(=O)N[C@@H](CS)C(=O)NCCc1ccccc1Cl [Compound 221],< 10 µM,–,–

Structure (SMILES),IC50 [1],IC50 [2],also measured
"CC(C)C[C@H](NC(=O)C1(Cc2cccc(C(=O)O)c2)CCc2ccccc2N1)C(=O)N[C@@H](CC(F)F)C(=O)NCCc1ccc(C(=O)O)cc1Cl (single isomer, unassigned) [Compound 712a]",–,–,IC50 [4]: < 100 µM
CC(C)COC(=O)N[C@@H](CCC(=O)O)C(=O)N[C@@H](CC(C)C)C(=O)N[C@@H](CS)C(=O)NCC(C)c1ccccc1 (mixture of isomers) [Compound 107],–,< 100 µM,–
CC(C)COC(=O)N[C@@H](CCC(=O)O)C(=O)N[C@@H](CC(C)C)C(=O)N[C@@H](CS)C(=O)NCCc1ccsc1 [Compound 190],–,< 10 µM,–
CC(C)COC(=O)N[C@@H](CCC(=O)O)C(=O)N1C2CCCCC2C[C@H]1C(=O)N[C@@H](CS)C(=O)NCCc1ccccc1Cl (stereo partly drawn) [Compound 420],–,–,IC50 [3]: < 10 µM
CCOc1ccc(CCNC(=O)C(CS)NC(=O)C(CC(C)C)NC(=O)C(CCC(=O)O)NC(=O)OCC(C)C)cc1 (stereo not drawn) [Compound 144],–,< 100 µM,–
COc1ccc(CCNC(=O)[C@H](CS)NC(=O)[C@H](CC(C)C)NC(=O)[C@H](CCC(=O)O)NC(=O)c2cc3ccccc3s2)cc1 [Compound 213],< 100 µM,–,–
CC(C)C[C@H](NC(=O)[C@H](CCC(=O)O)NC(=O)Cc1ccc(CC(=O)O)cc1)C(=O)N[C@@H](CS)C(=O)NCCc1ccc(Cl)cc1Cl [Compound 227],< 100 µM,–,–
CC(C)COC(=O)NC(CCC(=O)O)C(=O)NC(CC(C)C)C(=O)NC(CS)C(=O)NCCc1ccccc1OCc1ccccc1 (stereo not drawn) [Compound 124],–,< 100 µM,–
CC(C)CCOC(=O)NC(C(=O)NC(CC(C)C)C(=O)NC(CS)C(=O)NCCc1ccc(C(=O)O)cc1Cl)C(C)C (stereo not drawn) [Compound 184],–,< 10 µM,–
CC(C)COC(=O)N[C@@H](CCC(=O)O)C(=O)N[C@@H](CC1CC1)C(=O)N[C@@H](CS)C(=O)NCCc1ccccc1Cl [Compound 408],–,–,IC50 [3]: < 100 µM
CC(C)COC(=O)NC(CCC(=O)O)C(=O)N1CCC1C(=O)NC(CS)C(=O)NCCc1ccccc1Cl (stereo not drawn) [Compound 418],–,–,IC50 [3]: < 100 µM
CC(C)C[C@H](NC(=O)[C@H](CCC(=O)O)NS(=O)(=O)c1ccccc1)C(=O)N[C@@H](CS)C(=O)NCCc1ccccc1Cl [Compound 249],< 100 µM,–,–
CC(C)C[C@H](NC(=O)[C@H](CCC(=O)O)NC(=O)Cc1ccccc1CC(=O)O)C(=O)N[C@@H](CS)C(=O)NCCc1ccc(Cl)cc1Cl [Compound 225],< 10 µM,–,–
CC(C)C[C@H](NC(=O)[C@H](CCC(=O)O)NC(=O)c1ccncc1N)C(=O)N[C@@H](CS)C(=O)NCCc1ccccc1Cl [Compound 209],< 100 µM,–,–
CC(C)C[C@H](NC(=O)[C@H](CCC(=O)O)NC(=O)c1cc2ccccc2s1)C(=O)N[C@@H](CS)C(=O)NCCc1ccccc1Cl [Compound 212],< 100 µM,–,–
COc1ccc(CCNC(=O)[C@H](CS)NC(=O)[C@H](CC(C)C)NC(=O)[C@H](CCC(=O)O)NC(=O)c2ccc(C#N)cc2)cc1 [Compound 207],< 100 µM,–,–
COc1ccc(CCNC(=O)[C@H](CS)NC(=O)[C@H](CC(C)C)NC(=O)[C@H](CCC(=O)O)NC(=O)C(C)(C)CCC(=O)O)cc1 [Compound 243],< 100 µM,–,–
CC(C)C[C@H](NC(=O)[C@@H](NC(=O)OCC1CCOC1)C(C)C)C(=O)N[C@@H](CS)C(=O)NCCc1ccc(C(=O)O)cc1Cl (stereo partly drawn) [Compound 183],–,< 10 µM,–
CC(C)C[C@H](NC(=O)[C@H](CCC(=O)O)NC(=O)CC(C)CC(=O)O)C(=O)N[C@@H](CS)C(=O)NCCc1ccccc1Cl (stereo partly drawn) [Compound 245],< 100 µM,–,–

Structure (SMILES),IC50 [1],IC50 [2],also measured
CC(C)COC(=O)N[C@@H](CCC(=O)O)C(=O)N[C@@H](CC(C)C)C(=O)N[C@@H](CS)C(=O)NCC(O)c1ccccc1 (mixture of isomers) [Compound 106],–,< 100 µM,–
CC(C)COC(=O)NC(CCC(=O)O)C(=O)NC(CC(C)C)C(=O)NC(CS)C(=O)NCCc1ccc(O)cc1 (stereo not drawn) [Compound 146],–,< 100 µM,–
COc1ccc(C(=O)N[C@@H](CCC(=O)O)C(=O)N[C@@H](CC(C)C)C(=O)N[C@@H](CS)C(=O)NCCc2ccccc2Cl)cc1OC [Compound 205],< 100 µM,–,–
CC(C)COC(=O)N[C@@H](CCC(=O)O)C(=O)N1C=CC[C@H]1C(=O)N[C@@H](CS)C(=O)NCCc1ccccc1Cl [Compound 419],–,–,IC50 [3]: < 100 µM
CC(C)COC(=O)N[C@@H](CCC(=O)O)C(=O)NC(CC(F)(F)F)C(=O)N[C@@H](CS)C(=O)NCCc1ccc(C(=O)O)cc1 (mixture of isomers) [Compound 403],–,–,IC50 [3]: < 100 µM
COc1ccc(CCNC(=O)[C@H](CS)NC(=O)[C@H](CC(C)C)NC(=O)[C@H](CCC(=O)O)NS(=O)(=O)c2ccccc2)cc1 [Compound 250],< 100 µM,–,–
CC(C)COC(=O)N[C@@H](CCC(=O)O)C(=O)N[C@@H](CC(C)C)C(=O)N[C@@H](CS)C(=O)NCCc1ccc(/C=C/C(=O)O)cc1 [Compound 158],–,< 10 µM,–
CC(C)COC(=O)N[C@@H](CCC(=O)O)C(=O)N1c2ccccc2C[C@H]1C(=O)N[C@@H](CC(F)F)C(=O)NCCc1ccc(C(=O)O)cc1Cl [Compound 421],–,–,IC50 [3]: < 100 µM
CC(C)CC(NC(=O)c1ccccc1-c1ccccc1C(=O)O)C(=O)NC(CS)C(=O)NCCc1ccc(Cl)cc1Cl (stereo not drawn) [Compound 717],–,–,IC50 [4]: < 100 µM
COC(=O)c1cccc(CCNC(=O)C(CS)NC(=O)C(CC(C)C)NC(=O)C(CCC(=O)O)NC(=O)OCC(C)C)c1 (stereo not drawn) [Compound 132],–,< 100 µM,–
COC(=O)c1ccc(CCNC(=O)C(CS)NC(=O)C(CC(C)C)NC(=O)C(CCC(=O)O)NC(=O)OCC(C)C)c(F)c1 (stereo not drawn) [Compound 185],–,< 100 µM,–
CC(C)COC(=O)NC(CCC(=O)O)C(=O)NC(CC(C)C)C(=O)NC(CS)C(=O)NCCc1cccc(C(F)(F)F)c1 (stereo not drawn) [Compound 131],–,< 100 µM,–
COc1ccc(OC)c(CCNC(=O)C(CS)NC(=O)C(CC(C)C)NC(=O)C(CCC(=O)O)NC(=O)OCC(C)C)c1 (stereo not drawn) [Compound 174],–,< 100 µM,–
CCCC[C@H](NC(=O)[C@H](CCC(=O)O)NC(=O)OCC(C)C)C(=O)N[C@@H](CS)C(=O)NCCc1ccccc1Cl [Compound 407],–,–,IC50 [3]: < 100 µM
CC(C)COC(=O)NC(CCC(=O)O)C(=O)NC(CC(C)C)C(=O)NC(CS)C(=O)NCCc1ccccc1 (stereo not drawn) [Compound 104],–,< 100 µM,–
CC(C)COC(=O)NC(CCC(=O)O)C(=O)NC(CC(C)C)C(=O)NC(CS)C(=O)NCCc1ccc(C(=O)O)cc1F (stereo not drawn) [Compound 186],–,< 1 µM,–
CC(C)COC(=O)N[C@@H](CCC(=O)O)C(=O)N1Cc2ccccc2C[C@H]1C(=O)N[C@@H](CS)C(=O)NCCc1ccccc1Cl [Compound 417],–,–,IC50 [3]: < 100 µM
CC[C@H](NC(=O)[C@H](CCC(=O)O)NC(=O)OCC(C)C)C(=O)N[C@@H](CS)C(=O)NCCc1ccccc1Cl [Compound 401],–,–,IC50 [3]: < 100 µM
CC(C)C[C@H](NC(=O)[C@H](CCC(=O)O)NC(=O)c1cc(O)ccc1N)C(=O)N[C@@H](CS)C(=O)NCCc1ccccc1Cl [Compound 208],< 100 µM,–,–
